Assay results published in ChEMBL document CHEMBL2303647, “Data associated with the publication PLoS ONE, 8(3), e57888, (2013) PMID: 23505445. Compounds: GSK PKIS; Assays: NIH NCATS”.

What was measured:
[1] = target: T1, Coelenterazine h 2-monooxygenase (Renilla reniformis, UniProt P27652)
T1 sequence (P27652 whole entry): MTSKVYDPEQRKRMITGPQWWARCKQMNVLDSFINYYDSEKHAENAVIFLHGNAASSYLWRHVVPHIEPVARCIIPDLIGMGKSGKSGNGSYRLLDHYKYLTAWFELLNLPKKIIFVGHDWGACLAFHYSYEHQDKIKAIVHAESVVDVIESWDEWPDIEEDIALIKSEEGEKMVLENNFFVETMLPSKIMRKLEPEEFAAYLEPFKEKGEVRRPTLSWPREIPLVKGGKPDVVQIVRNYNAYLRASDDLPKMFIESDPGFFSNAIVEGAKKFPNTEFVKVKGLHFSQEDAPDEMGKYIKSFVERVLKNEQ
Description: GSK_PKIS: Inhibition of Sea Pansy Luciferase (Data from PubChem: AID 652015) [NIH NCATS]

[2] = target: Luciferin 4-monooxygenase (Photinus pyralis, UniProt P08659)
Luciferin 4-monooxygenase, sequence (P08659 whole entry): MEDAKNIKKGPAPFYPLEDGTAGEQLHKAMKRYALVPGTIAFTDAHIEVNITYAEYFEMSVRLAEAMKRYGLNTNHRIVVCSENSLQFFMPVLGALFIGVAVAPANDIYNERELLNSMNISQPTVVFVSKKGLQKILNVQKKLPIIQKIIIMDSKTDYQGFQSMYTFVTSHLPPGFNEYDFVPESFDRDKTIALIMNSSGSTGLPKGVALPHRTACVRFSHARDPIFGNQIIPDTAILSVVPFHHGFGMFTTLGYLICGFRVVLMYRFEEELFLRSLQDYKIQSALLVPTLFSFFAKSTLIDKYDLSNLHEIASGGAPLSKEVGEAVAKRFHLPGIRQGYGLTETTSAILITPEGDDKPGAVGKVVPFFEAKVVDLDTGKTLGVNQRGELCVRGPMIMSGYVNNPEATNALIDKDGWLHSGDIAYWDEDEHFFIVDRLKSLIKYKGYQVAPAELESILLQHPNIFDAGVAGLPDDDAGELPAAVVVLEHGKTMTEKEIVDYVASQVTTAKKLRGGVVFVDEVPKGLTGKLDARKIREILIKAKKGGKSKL
Description: GSK_PKIS: Inhibition of Firefly Luciferase (Data from PubChem: AID 652016) [NIH NCATS]

| AC50 ([1]; read-out: AC50) | AC50 ([2]; read-out: AC50) | SMILES | AC50 [2] | AC50 [1] |
| --- | --- | --- | --- | --- |
| 41.1 µM | 0.116 µM | COC(=O)Nc1nc2cc(Oc3ccc(NC(=O)Nc4cccc(C(=O)O)c4)cc3)ccc2[nH]1 [GW701427A] | – | – |
| 18.3 µM | 13 µM | Cc1c2ccc(N(C)c3ccnc(Nc4cccc(S(N)(=O)=O)c4)n3)cc2nn1C [GW771127A] | – | – |
| 20.6 µM | – | CC(C)=Cc1cccc2c1/C(=N/Nc1ccc(S(N)(=O)=O)cc1)C(=O)N2 [GW396574X] | Phenotype: Inactive; Curve_Description: None | – |
| – | 20.6 µM | CNC(=O)c1cncc(/C=C/c2c(C)cccc2C)c1 [GW445012X] | – | Phenotype: Inactive; Curve_Description: None |
| – | – | COc1ccc2ncn(-c3cc(O[C@H](C)c4ccccc4Cl)c(C(N)=O)s3)c2c1 [GSK-317314A] | Phenotype: Inactive; Curve_Description: None | Phenotype: Inactive; Curve_Description: None |
| – | – | COc1ccc(-c2nn3ncccc3c2-c2ccnc(Nc3cccc(C(F)(F)F)c3)n2)cc1 [GW827105X] | Phenotype: Inactive; Curve_Description: None | Phenotype: Inactive; Curve_Description: None |
| – | – | FC(F)(F)CNc1nccc(-c2cnn3ncccc23)n1 [GW683003X] | Phenotype: Activator; Curve_Description: None | Phenotype: Inactive; Curve_Description: None |
| – | – | COc1ccc(-c2nn3ncccc3c2-c2ccnc(Nc3ccc4c(c3)OCCO4)n2)cc1 [GW827106X] | Phenotype: Inactive; Curve_Description: None | Phenotype: Inactive; Curve_Description: None |
| – | 0.291 µM | CCCN1CCC(Oc2cc(Nc3nc(Nc4cccc(F)c4C(N)=O)c4cc[nH]c4n3)c(OC)cc2Cl)CC1 [GSK-1713088A] | – | Phenotype: Activator; Curve_Description: None |
| – | – | COc1cc2ncnc(Nc3ccc(C)c(O)c3)c2cc1OC.Cl [GW410563A] | Phenotype: Inactive; Curve_Description: None | Phenotype: Inactive; Curve_Description: None |
| – | – | Cl.NCc1ccc(-c2nc(-c3ccc(Cl)c(O)c3)c(-c3ccncc3)[nH]2)cc1 | Phenotype: Inactive; Curve_Description: None | Phenotype: Inactive; Curve_Description: None |
| – | – | Fc1ccc(Nc2nccc(-c3c(-c4ccc(C(F)(F)F)cc4)nn4ncccc34)n2)cc1F [GW828529X] | Phenotype: Inactive; Curve_Description: None | Phenotype: Inactive; Curve_Description: None |
| – | 29.1 µM | CN(C)CCNC(=O)Nc1ccc(N(C)c2ccnc(Nc3ccc(CS(C)(=O)=O)cc3)n2)cc1.Cl [GW830900A] | – | Phenotype: Inactive; Curve_Description: None |
| – | – | Nc1nccc(-c2c(-c3ccc(F)cc3)ncn2C2CCC(O)CC2)n1 (centres undefined) | Phenotype: Inactive; Curve_Description: None | Phenotype: Inactive; Curve_Description: None |
| 20.6 µM | 25.9 µM | COc1cc(N2CCN(C(C)C)CC2)ccc1Nc1nc(Nc2ccc(F)cc2C(N)=O)c2cc[nH]c2n1 [GSK-1220512A] | – | – |
| – | – | COc1cccc(-n2ncc3c(N/N=C/c4ccc(C)cc4)ncnc32)c1 [GW829877X] | Phenotype: Inactive; Curve_Description: None | Phenotype: Inactive; Curve_Description: None |
| – | – | COc1cc2ncn(-c3cc(OCc4ccccc4Cl)c(C(N)=O)s3)c2cc1OC [GW852849X] | Phenotype: Inactive; Curve_Description: None | Phenotype: Inactive; Curve_Description: None |
| – | – | O=C(Nc1n[nH]c2nc(-c3ccco3)ccc12)C1CC1 | Phenotype: Inactive; Curve_Description: None | Phenotype: Inactive; Curve_Description: None |
| 7.3 µM | 9.19 µM | O=C(NCC1CC1)c1ccc(-c2cccc(C(=O)NC3CC3)c2)cc1 [GW806776X] | – | – |
| – | – | CCn1c(-c2nonc2N)nc2cnc(Oc3cccc(NC(=O)c4ccc(OCCN5CCOCC5)cc4)c3)cc21.Cl [GSK-269962B] | Phenotype: Inactive; Curve_Description: None | Phenotype: Inactive; Curve_Description: None |
| – | 1.03 µM | COc1ccccc1Nc1ncc(-c2ccccc2)o1.Cl [GW577921A] | – | Phenotype: Inactive; Curve_Description: None |
| – | – | COc1cc(Nc2ncc3c(C)nc(-c4cccc(C(F)(F)F)c4)n3n2)cc(OC)c1OC [GW837331X] | Phenotype: Inactive; Curve_Description: None | Phenotype: Inactive; Curve_Description: None |
| – | – | Cl.c1ccc(-c2nc3n(c2-c2ccc4c(c2)OCO4)CCC3)nc1 | Phenotype: Inactive; Curve_Description: None | Phenotype: Inactive; Curve_Description: None |
| – | – | COC(=O)Nc1nc2ccc(S(=O)(=O)c3ccc(NC(=O)Nc4cc(C(F)(F)F)ccc4F)cc3)cc2[nH]1.Cl [GW680908A] | Phenotype: Inactive; Curve_Description: None | Phenotype: Inactive; Curve_Description: None |

| AC50 ([1]; read-out: AC50) | AC50 ([2]; read-out: AC50) | SMILES | AC50 [2] | AC50 [1] |
| --- | --- | --- | --- | --- |
| 18.3 µM | 16.3 µM | c1ccc(Cc2nc3ccc(Nc4ncnc5ccccc45)cc3[nH]2)cc1 | – | – |
| – | 29.1 µM | NC(=O)c1ccc(Oc2nccc(-c3c(-c4ccc(F)cc4)ncn3C3CCNCC3)n2)cc1 | – | Phenotype: Inactive; Curve_Description: None |
| 29.1 µM | 14.6 µM | CN(C)CCOc1ccc(-c2nc(-c3ccncc3)c(-c3ccc4c(c3)CC/C4=N\O)[nH]2)cc1 | – | – |
| – | – | Cc1cccc(-c2n[nH]cc2-c2ccc3ncccc3n2)n1 [GW786460X] | Phenotype: Inactive; Curve_Description: None | Phenotype: Inactive; Curve_Description: None |
| – | 20.6 µM | CS(=O)(=O)CCNCc1ccoc1-c1ccc2ncnc(Nc3ccc(OCc4ccccc4)cc3)c2c1.Cl [GW568377A] | – | Phenotype: Inactive; Curve_Description: None |
| – | 16.3 µM | O=C(Nc1n[nH]c2cc(-c3ccc(F)cc3)ccc12)C1CC1 | – | Phenotype: Inactive; Curve_Description: None |
| – | – | Cc1ccc(C(=O)NC(C)C)cc1-c1ccc(C(=O)NCC2CC2)cc1 [GW785974X] | Phenotype: Inactive; Curve_Description: None | Phenotype: Inactive; Curve_Description: None |
| 29.1 µM | – | CCn1c(-c2nonc2N)nc2c(C#CC(C)(C)O)nc(OC[C@H](N)c3ccccc3)cc21 [GSK-943949A] | Phenotype: Inactive; Curve_Description: None | – |
| – | 13 µM | NC(=O)c1cccc(Nc2nccc(Nc3cccc4[nH]ncc34)n2)c1 [GW782612X] | – | Phenotype: Inactive; Curve_Description: None |
| 23.1 µM | 16.3 µM | CS(=O)(=O)Nc1ccc(N/C=C2\C(=O)Nc3ccccc32)cc1 [GW278681X] | – | – |
| – | – | Cc1cc(O)cc(C)c1/C=C/c1cncc(C(N)=O)c1 [GW435821X] | Phenotype: Inactive; Curve_Description: None | Phenotype: Inactive; Curve_Description: None |
| – | – | CS(=O)(=O)CCNCc1ccc(-c2ccc3ncnc(Nc4ccc(OCc5ccccc5)c(C(F)(F)F)c4)c3c2)o1.Cl [GW574782A] | Phenotype: Inactive; Curve_Description: None | Phenotype: Inactive; Curve_Description: None |
| – | 18.3 µM | COc1cccc(-n2ncc3c(N/N=C/c4ccc(S(C)(=O)=O)cc4)ncnc32)c1 [PYRAZOLOPYRIMIDINE 2] | – | Phenotype: Inactive; Curve_Description: None |
| 20.6 µM | 5.17 µM | O=C1Nc2ccccc2/C1=C1\CCc2cc(O)ccc21 | – | – |
| 46.1 µM | – | COc1cc2c(cc1Nc1nc(Nc3ccsc3C(N)=O)c3cc[nH]c3n1)N(C(=O)CN(C)C)CCC2 [GSK-2110236A] | Phenotype: Inactive; Curve_Description: None | – |
| – | 13 µM | CS(=O)(=O)CCNCc1coc(-c2ccc3ncnc(Nc4ccc(OCc5ccccc5)cc4)c3c2)c1.Cl [GW566221A] | – | Phenotype: Inactive; Curve_Description: None |
| – | 6.51 µM | COc1ccc(-c2cc3c(N)ncnc3o2)cc1 [GW642138X] | – | Phenotype: Inactive; Curve_Description: None |
| – | 18.3 µM | COc1cccc(-n2ncc3c(N/N=C/c4cccc(F)c4)ncnc32)c1 [GW817394X] | – | Phenotype: Inactive; Curve_Description: None |
| – | – | Cc1nn(C)c2cc(N(C)c3ccnc(Nc4cccc(S(N)(=O)=O)c4)n3)ccc12.Cl [GW770220A] | Phenotype: Inactive; Curve_Description: None | Phenotype: Inactive; Curve_Description: None |
| 23.1 µM | – | CN(C)c1cc2c(Nc3ccc4c(cnn4Cc4ccccc4)c3)ncnc2cn1 [GW282974X] | Phenotype: Inactive; Curve_Description: None | – |
| – | – | Nc1ncnc2occ(-c3ccc(NC(=O)Nc4cccc(C(F)(F)F)c4)cc3)c12 [GW795493X] | Phenotype: Inactive; Curve_Description: None | Phenotype: Inactive; Curve_Description: None |
| – | – | NC(=O)c1cc(-c2ccc(F)cc2)cc(-c2ccncc2)c1N [GSK-620503A] | Phenotype: Inactive; Curve_Description: None | Phenotype: Inactive; Curve_Description: None |
| – | – | NS(=O)(=O)c1ccc(Nc2ncc(-c3ccccc3)o2)cc1 [GW572399X] | Phenotype: Inactive; Curve_Description: None | Phenotype: Inactive; Curve_Description: None |

| SMILES | AC50 ([1]; read-out: AC50) | AC50 ([2]; read-out: AC50) | AC50 [2] | AC50 [1] |
| --- | --- | --- | --- | --- |
| COc1ccc2cc(-c3c(-c4ccncc4)nc(-c4ccc([S+](C)[O-])cc4C)n3C)ccc2c1 (centres undefined) | 41.1 µM | – | Phenotype: Inactive; Curve_Description: None | – |
| Cl.O=S(=O)(CCNCc1ccc(-c2ccc3ncnc(Nc4ccc(OCc5cccc(F)c5)c(Cl)c4)c3c2)o1)c1ccccc1 [GW633459A] | – | 29.1 µM | – | Phenotype: Inactive; Curve_Description: None |
| COc1cc2ncn(-c3cc(OCc4cccs4)c(C(N)=O)s3)c2cc1OC [GSK-312948A] | 9.19 µM | – | Phenotype: Inactive; Curve_Description: None | – |
| Cc1nnc(-c2cccc(-c3ccc(C(=O)NCC4CC4)cc3)c2)o1 [GW734508X] | 36.6 µM | – | Phenotype: Inactive; Curve_Description: None | – |
| O=C1NC(=O)C(N2CCc3ccccc32)=C1c1ccc(Cl)cc1 | 20.6 µM | 6.51 µM | – | – |
